Source: patent publication US8613933B2, “Brachyury polypeptides and methods for use” (The United States of America, as represented by the …, priority 2007, dated 2013)
Peptide text beside a SMILES is read from it.

How the values were obtained:
T2 cells = assay type: cell-based, human
Procedure: (§1) Target cells were labeled with 50 μCi of ^111Indium-labeled oxyquinoline (Amersham Health, Silver Spring, Md.) for 15 minutes at room temperature. Target cells in medium containing 10% human AB serum were plated at 3×10^3 cells per well, in 96-well rounded-bottom culture plates. Labeled C1R-A2 or T2 cells were incubated with peptides at the indicated concentrations for 60 minutes at 37° C. in 5% CO2 before the addition of effector cells. No peptide was added when carcinoma cells or CD19+ B cells were used as targets. CD8+ T cells negatively isolated from T-cell cultures were used as effector cells, at various effector-to-target (E:T) cell ratios. […] Supernatants were harvested and the ^111In released was measured by gamma counting. Spontaneous release was determined by incubating the target cells with medium alone, and complete lysis by incubating the target cells with 2.5% Triton X-100. All determinations were performed in triplicate, and standard deviations were calculated. Specific lysis was calculated as follows: specific lysis (%)=[(observed release-spontaneous release)/(complete release-spontaneous release)]×100. […] Cytotoxic lysis of normal B lymphocytes was also analyzed since low expression of Brachyury was detectable in CD19+ cells isolated from various healthy donors.

[1] = system: normal donor CD19+ B cells; assay type: cell-based, human
Procedure: as §1

HLA-A0201 molecules = biological target: T1, HLA-A0201 molecules (Homo sapiens, UniProt P04439, D140Y/D185E/D98H/E176V/E277Q/G131W/G231S/I119V/I121R/I166T/I218V/L300P/L318F/N151K/N90K/P208A/P217A/Q86G/Q94H/R138H/R169H/T345S); experiment: HLA-A2 binding assay: HLA-A02 surface expression on T2 cells by flow cytometry; details: 25 μM peptide, compared to positive and negative control peptides
T1 construct: the T2 (HLA-A2+) transport-deletion mutant cell line; endogenous in cells; host or cells: T2 (HLA-A2+) TAP-deficient cells
Procedure: Binding of Brachyury-specific peptides T-p1, T-p2, T-p3, and T-p4 (SEQ ID NOs: 1-4) to HLA-A0201 molecules was evaluated by flow cytometry analysis of HLA-A02 surface expression on T2 cells. T2 cells (1×10^6) in serum-free Iscove's modified Dulbecco's medium were incubated in the presence of various concentrations of each peptide, in 24-well culture plates at 37° C. with 5% CO2. After 18 hours in culture, T2 cells were harvested, washed with 1× phosphate buffered saline (PBS) (Invitrogen) and stained with 20 μl of a FITC-conjugated anti-HLA-A02-specific monoclonal antibody (MAb) (One Lambda, Inc., Canoga Park, Calif.). A FITC-conjugated IgG2a MAb (BD Biosciences, San Jose, Calif.) was used as an isotype control. […] Results were expressed as mean fluorescence intensity (MFI) collected on a log scale. […] Assuming first order kinetics, the log2 of MFI/MFI0 (MFI is the fluorescence at each time point and MFI0 the initial fluorescence at time 0) was plotted against time (minutes). The decay rate constant was calculated as the slope of the linear regression for each curve and the half-life of each peptide-MHC complex was calculated as […].
In silico-predicted epitopes were then assessed for binding to the MHC molecules in a cell-based assay. […]

CD8+ T cells = experiment: IFN-γ ELISA of peptide-induced CD8+ T cells stimulated with peptide-pulsed autologous DCs; assay type: cell-based, human; details: healthy donor, DCs pulsed with 25 μM peptide, three IVS, 24 hours stimulation
From the text: To generate Brachyury-specific cytotoxic T cells (CTLs), peptide-pulsed irradiated (30 Gy) DCs were used as antigen presenting cells (APCs) with autologous, non-adherent cells used as effector cells at an effector-to-APC ratio of 10:1. Cultures were maintained for three initial days in medium containing 10% human AB serum, and four additional days in the same medium supplemented with 20 U/ml of recombinant human IL-2. After a seven-day culture period, designated as an in vitro stimulation (IVS) cycle, cells were re-stimulated as described above.
After three IVS cycles, CD8+ T cells that were negatively isolated by using a CD8+ isolation kit (Miltenyi Biotec, Auburn, Calif.) were stimulated for 24 hours in the presence of peptide-pulsed autologous DCs. Culture supernatants were analyzed for the presence of IFN-γ by using an enzyme linked immunosorbant assay (ELISA) kit (Biosource International Inc., Camarillo, Calif.). Results were expressed in pg/ml.
Irradiated DCs pulsed with 25 μM of each peptide were used to stimulate autologous T cells from a healthy donor's PBMCs. […] Cytotoxic lysis of normal B lymphocytes was also analyzed since low expression of Brachyury was detectable in CD19+ cells isolated from various healthy donors.

| Molecule | Lowest peptide concentration showing cytotoxic responses of T-p2 CTLs (T2 cells) | Cytotoxic lysis of normal B lymphocytes [1] | Binding to HLA-A02 molecules (cell surface MHC stabilization, MFI) (HLA-A0201 molecules) | Induction of antigen-specific CTLs releasing IFN-γ upon stimulation with the specific peptide (CD8+ T cells) |
| --- | --- | --- | --- | --- |
| CC(C)C[C@H](NC(=O)[C@@H](NC(=O)[C@H](CO)NC(=O)[C@@H](NC(=O)CNC(=O)[C@@H]1CCCN1C(=O)[C@H](CC(C)C)NC(=O)[C@H](CC(C)C)NC(=O)[C@@H](N)Cc1c[nH]c2ccccc12)[C@@H](C)O)[C@@H](C)O)C(=O)O [T-p2, WLLPGTSTL] (H-WLLPGTSTL-OH; N-terminus and C-terminus assumed) | 1 nM | No lysis was observed |  |  |
| AMYSFLLDFV (listed as Homo sapiens) [T-p4] |  |  | highest binding to T2 cells |  |
| RLIASWTPV (listed as Homo sapiens) [T-p3] |  |  | highest binding to T2 cells | induced antigen-specific CTLs able to release IFN-γ |
